Experiments:
Assay type in all cases: biochemical
CDK2/cyclinE (h) = molecular target: T1, CDK2/cyclinE (h) (Homo sapiens, UniProt P24941); assay: Upstate kinase panel: CDK2/cyclinE; settings: 10 μM ATP
T1 construct: purchased Upstate
Description: (§1) These kinases are produced by Upstate and screened according to the respective protocols indicated by the supplier (http://www.upstate.com/features/kp_protocols.asp). Examples 1, 12, 166 and 238 were tested at a concentration of 20 μM, 10 μM, 1 μM and 1 μM respectively in the presence of 10 μM of ATP for examples 1 and 12 and at the concentrations of ATP shown in parentheses for examples 166 and 238. The results shown in Table VII correspond to percentage inhibition of the kinase tested in the presence of the compound, relative to a control effected without the compound.

cKit (h) = molecular target: T2, cKit (h) (Homo sapiens, UniProt P10721); assay: Upstate kinase panel: cKit
T2 construct: purchased Upstate
Description: as §1

IGF-1R (h) = molecular target: T3, IGF-1R (h) (Homo sapiens, UniProt P08069); assay: Upstate kinase panel: IGF-1R; settings: 10 μM ATP
T3 construct: purchased Upstate
Description: as §1

JAK3 (h) = molecular target: T4, JAK3 (h) (Homo sapiens, UniProt P52333); assay: Upstate kinase panel: JAK3
T4 construct: purchased Upstate
T4 sequence (P52333 1-1124): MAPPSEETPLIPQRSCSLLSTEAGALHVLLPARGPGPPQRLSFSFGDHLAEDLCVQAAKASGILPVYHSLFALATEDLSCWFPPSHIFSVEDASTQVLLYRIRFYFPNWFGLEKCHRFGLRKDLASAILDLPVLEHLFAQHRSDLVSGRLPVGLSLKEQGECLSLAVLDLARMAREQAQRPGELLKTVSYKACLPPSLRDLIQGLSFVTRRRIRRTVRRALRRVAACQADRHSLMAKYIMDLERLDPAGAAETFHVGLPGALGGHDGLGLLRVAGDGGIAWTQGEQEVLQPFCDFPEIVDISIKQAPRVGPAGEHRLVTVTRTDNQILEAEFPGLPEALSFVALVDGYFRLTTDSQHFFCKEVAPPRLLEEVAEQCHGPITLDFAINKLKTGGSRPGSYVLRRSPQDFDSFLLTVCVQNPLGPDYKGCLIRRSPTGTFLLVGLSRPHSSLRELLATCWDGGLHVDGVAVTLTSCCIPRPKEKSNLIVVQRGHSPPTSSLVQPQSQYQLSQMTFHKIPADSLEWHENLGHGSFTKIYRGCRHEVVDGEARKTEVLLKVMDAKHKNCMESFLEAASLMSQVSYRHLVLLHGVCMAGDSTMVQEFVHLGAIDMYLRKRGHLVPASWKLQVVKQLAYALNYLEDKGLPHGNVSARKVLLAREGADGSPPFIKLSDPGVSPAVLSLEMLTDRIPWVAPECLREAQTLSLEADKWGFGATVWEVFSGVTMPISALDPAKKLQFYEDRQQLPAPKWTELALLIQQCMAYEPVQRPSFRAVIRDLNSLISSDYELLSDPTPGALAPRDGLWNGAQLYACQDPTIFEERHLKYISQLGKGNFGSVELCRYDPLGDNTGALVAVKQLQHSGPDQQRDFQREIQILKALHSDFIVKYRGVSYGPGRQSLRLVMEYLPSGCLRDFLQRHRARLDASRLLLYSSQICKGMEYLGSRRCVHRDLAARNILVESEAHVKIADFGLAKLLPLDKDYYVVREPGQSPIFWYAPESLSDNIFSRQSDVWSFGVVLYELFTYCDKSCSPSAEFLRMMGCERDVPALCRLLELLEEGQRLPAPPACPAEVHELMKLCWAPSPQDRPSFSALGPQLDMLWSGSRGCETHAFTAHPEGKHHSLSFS
Description: as §1

FGFR2 (h) = molecular target: T5, FGFR2 (h) (Homo sapiens, UniProt P21802); assay: Upstate kinase panel: FGFR2; settings: 10 μM ATP
T5 construct: purchased Upstate
Description: as §1

PDGFRβ (h) = molecular target: T6, PDGFRβ (h) (Homo sapiens, UniProt P09619); assay: Upstate kinase panel: PDGFRβ
T6 construct: purchased Upstate
Description: as §1

EGFR (h) = molecular target: T7, EGFR (h) (Homo sapiens, UniProt P00533); assay: Upstate kinase panel: EGFR
T7 construct: purchased Upstate
Description: as §1

cSRC (h) = molecular target: T8, cSRC (h) (Homo sapiens, UniProt P12931); assay: Upstate kinase panel: cSRC
T8 construct: purchased Upstate
Description: as §1

RET = molecular target: T9, RET (Homo sapiens, UniProt P07949); assay: Inhibition of RET kinase activity, recombinant RET method (Kinase-Glo); settings: RET 2 μg/ml, poly-EY4 substrate, 20 μM ATP, two hours at 30° C.
T9 construct: purchased Upstate 14-570MG
Procedure, shortened: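 Recombinant RET at 2 μg/ml in 20 mM MOPS/NaOH pH 7.0, 1 mM EDTA, 5% glycerol, 0.01% Brij35, 0.1% 2-mercaptoethanol, 1 mg/ml BSA; compounds 10 nM–30 μM final.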

PKBγ (h) = molecular target: T10, PKBγ (h) (Homo sapiens, UniProt Q9Y243); assay: Upstate kinase panel: PKBγ
T10 construct: purchased Upstate
Description: as §1

c-RAF (h) = molecular target: T11, c-RAF (h) (Homo sapiens, UniProt P04049, Y340D/Y341D); assay: Upstate kinase panel: c-RAF
T11 construct: purchased Upstate
Description: as §1

GSK3B (h) = molecular target: T12, GSK3B (h) (Homo sapiens, UniProt P49841); assay: Upstate kinase panel: GSK3B
T12 construct: purchased Upstate
Description: as §1

[1] = compound 20 μM, read-out: % inhibition at 20 μMol
[2] = compound 20 μM, 10 μM ATP, read-out: % inhibition at 20 μMol
[3] = compound 10 μM, read-out: % inhibition at 10 μMol
[4] = compound 10 μM, 10 μM ATP, read-out: % inhibition at 10 μMol
[5] = compound 1 μM, ATP (200), read-out: % inhibition at 1 μMol
[6] = compound 1 μM, ATP (10), read-out: % inhibition at 1 μMol

T9 sequence (P07949 29-1114): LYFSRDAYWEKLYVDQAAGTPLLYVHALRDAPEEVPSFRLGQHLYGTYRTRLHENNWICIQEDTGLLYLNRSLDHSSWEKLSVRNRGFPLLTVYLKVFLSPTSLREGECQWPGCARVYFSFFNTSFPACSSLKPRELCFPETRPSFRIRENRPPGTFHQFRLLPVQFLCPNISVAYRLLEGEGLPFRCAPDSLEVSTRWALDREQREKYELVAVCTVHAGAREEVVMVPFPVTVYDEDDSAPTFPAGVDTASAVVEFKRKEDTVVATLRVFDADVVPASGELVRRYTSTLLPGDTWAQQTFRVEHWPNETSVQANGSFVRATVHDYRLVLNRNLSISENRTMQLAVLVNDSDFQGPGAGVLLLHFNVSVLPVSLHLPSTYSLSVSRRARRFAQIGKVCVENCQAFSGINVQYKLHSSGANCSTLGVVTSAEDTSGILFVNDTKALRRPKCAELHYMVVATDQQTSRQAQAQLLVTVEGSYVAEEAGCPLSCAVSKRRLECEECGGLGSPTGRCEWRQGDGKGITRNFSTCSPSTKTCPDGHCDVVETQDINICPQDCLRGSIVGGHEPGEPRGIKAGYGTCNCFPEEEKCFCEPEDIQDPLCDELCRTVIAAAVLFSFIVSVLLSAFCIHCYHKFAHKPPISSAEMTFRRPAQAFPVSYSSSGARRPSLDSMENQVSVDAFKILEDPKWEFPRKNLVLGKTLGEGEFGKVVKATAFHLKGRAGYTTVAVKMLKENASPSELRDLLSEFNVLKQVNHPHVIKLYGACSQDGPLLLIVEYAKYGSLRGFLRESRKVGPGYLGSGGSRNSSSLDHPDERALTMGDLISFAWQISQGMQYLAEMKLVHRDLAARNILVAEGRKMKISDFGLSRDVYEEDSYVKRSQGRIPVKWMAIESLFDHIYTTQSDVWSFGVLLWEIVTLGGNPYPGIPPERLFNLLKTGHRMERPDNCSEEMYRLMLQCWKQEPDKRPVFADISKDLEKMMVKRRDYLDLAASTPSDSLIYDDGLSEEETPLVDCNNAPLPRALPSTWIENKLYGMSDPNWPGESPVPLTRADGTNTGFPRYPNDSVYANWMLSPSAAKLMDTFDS
T8 sequence (P12931 whole entry): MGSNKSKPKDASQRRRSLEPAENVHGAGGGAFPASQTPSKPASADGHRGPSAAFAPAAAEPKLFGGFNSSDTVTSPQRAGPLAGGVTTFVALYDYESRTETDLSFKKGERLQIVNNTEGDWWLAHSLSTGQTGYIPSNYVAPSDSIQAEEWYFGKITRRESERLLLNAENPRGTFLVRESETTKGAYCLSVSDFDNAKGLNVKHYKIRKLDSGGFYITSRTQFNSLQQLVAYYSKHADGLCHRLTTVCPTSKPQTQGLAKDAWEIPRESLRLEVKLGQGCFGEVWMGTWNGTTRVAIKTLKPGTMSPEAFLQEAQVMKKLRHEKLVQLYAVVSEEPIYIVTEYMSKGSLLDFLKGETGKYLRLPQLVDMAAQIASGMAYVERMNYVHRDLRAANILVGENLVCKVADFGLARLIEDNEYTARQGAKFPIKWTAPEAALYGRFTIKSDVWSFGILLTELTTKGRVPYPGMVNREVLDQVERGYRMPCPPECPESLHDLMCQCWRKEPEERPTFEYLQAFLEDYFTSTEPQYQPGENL
T2 sequence (P10721 26-976): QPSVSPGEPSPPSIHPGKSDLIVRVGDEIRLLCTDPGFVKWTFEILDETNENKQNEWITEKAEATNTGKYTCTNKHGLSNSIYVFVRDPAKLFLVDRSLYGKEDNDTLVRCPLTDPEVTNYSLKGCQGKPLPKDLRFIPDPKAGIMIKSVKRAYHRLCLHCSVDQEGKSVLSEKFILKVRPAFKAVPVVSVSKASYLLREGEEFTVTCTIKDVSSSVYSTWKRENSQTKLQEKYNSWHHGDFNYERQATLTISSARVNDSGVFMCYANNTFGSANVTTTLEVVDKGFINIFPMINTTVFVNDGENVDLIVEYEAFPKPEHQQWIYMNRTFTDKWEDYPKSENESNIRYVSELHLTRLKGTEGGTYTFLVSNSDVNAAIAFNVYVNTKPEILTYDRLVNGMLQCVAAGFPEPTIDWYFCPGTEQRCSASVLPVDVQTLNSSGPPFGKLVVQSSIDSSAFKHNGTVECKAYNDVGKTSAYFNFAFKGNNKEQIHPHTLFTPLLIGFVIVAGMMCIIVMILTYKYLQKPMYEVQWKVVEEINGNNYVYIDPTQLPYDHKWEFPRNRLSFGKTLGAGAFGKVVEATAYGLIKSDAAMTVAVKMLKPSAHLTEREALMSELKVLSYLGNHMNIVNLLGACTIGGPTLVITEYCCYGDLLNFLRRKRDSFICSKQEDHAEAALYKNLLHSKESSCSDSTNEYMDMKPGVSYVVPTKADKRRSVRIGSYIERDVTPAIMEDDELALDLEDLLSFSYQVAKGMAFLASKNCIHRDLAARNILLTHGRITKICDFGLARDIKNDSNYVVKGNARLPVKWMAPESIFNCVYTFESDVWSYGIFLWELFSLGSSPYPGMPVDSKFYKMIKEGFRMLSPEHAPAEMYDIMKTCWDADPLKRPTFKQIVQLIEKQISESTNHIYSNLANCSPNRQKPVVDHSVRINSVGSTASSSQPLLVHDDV
T11 sequence (P04049 306-648 Y340D/Y341D limits assumed): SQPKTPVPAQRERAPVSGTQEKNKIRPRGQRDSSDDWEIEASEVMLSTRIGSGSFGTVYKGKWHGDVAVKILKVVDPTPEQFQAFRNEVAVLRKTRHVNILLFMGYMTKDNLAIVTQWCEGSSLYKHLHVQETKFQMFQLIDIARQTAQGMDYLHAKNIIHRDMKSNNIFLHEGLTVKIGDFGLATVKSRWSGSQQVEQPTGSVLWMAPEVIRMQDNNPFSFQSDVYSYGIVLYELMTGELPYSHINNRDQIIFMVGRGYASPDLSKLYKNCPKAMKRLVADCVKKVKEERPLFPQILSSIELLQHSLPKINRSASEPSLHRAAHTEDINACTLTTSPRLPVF
T7 sequence (P00533 25-1210): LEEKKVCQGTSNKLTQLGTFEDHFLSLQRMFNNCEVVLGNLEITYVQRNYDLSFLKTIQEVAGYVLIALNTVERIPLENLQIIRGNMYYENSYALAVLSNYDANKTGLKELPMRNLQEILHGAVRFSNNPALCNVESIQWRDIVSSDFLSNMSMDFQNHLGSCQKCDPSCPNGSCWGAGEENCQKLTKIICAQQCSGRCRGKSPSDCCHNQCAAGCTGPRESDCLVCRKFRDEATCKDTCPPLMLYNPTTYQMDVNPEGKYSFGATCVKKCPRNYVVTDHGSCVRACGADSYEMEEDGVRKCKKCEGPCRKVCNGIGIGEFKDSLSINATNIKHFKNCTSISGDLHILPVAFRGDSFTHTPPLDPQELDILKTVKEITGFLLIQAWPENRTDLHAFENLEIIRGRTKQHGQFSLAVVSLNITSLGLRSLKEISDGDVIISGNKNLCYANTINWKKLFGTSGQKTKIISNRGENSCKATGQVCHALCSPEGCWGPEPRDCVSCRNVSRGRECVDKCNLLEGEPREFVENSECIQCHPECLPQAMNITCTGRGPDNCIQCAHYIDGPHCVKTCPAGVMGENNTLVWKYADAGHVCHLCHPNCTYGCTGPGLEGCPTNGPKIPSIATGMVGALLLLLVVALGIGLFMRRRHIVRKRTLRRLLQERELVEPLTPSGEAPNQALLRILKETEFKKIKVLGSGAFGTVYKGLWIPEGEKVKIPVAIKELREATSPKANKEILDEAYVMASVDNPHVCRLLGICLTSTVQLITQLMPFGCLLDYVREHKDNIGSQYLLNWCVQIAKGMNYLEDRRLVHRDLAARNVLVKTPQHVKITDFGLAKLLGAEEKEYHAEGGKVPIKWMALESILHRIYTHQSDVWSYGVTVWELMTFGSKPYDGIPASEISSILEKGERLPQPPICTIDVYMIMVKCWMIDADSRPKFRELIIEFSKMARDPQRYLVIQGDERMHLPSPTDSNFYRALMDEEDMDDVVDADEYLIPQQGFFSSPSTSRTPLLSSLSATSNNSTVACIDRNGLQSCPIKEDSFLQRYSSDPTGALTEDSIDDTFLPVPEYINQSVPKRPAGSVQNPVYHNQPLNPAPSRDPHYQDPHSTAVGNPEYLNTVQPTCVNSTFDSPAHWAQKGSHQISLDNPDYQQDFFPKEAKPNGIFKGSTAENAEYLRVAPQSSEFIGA
T10 sequence (Q9Y243 whole entry): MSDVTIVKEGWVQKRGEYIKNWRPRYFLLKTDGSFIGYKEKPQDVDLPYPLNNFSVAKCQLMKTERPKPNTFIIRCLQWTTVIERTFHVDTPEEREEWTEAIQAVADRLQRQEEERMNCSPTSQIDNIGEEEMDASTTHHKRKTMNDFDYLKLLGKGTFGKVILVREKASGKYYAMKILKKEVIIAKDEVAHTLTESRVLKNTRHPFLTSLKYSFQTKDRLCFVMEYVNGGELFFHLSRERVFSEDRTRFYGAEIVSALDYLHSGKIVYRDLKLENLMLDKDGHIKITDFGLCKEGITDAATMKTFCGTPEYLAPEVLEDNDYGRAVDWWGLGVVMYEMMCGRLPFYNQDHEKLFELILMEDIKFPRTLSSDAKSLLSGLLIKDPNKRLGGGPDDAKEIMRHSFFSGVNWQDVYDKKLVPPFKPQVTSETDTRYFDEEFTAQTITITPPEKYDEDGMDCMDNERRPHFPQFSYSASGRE
T12 sequence (P49841 whole entry): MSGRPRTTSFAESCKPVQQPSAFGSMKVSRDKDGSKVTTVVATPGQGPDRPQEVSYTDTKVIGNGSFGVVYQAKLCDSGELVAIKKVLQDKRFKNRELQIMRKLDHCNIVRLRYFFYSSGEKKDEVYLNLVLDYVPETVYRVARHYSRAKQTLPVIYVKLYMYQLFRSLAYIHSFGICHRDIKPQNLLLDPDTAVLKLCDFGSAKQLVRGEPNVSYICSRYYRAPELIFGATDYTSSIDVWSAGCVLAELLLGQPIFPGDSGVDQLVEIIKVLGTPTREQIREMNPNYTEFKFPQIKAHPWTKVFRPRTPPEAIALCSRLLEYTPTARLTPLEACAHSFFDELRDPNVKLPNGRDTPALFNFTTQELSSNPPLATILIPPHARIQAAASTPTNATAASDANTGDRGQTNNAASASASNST

`CCOC(=O)c1c[nH]c2c(=O)[nH]c3ccccc3c12` [Compound 1, 4-Oxo-4,5-dihydro-3H-pyrrolo[2,3-c]quinoline-1-ethyl carboxylate] showed an inhibition at 20 µM (CDK2/cyclinE (h); [1]) of 97%, an inhibition at 20 µM (cKit (h); [2]) of 20% and an inhibition at 20 µM (IGF-1R (h); [1]) of 42%. The inhibition at 20 µM (JAK3 (h); [2]) was 58%, the inhibition at 20 µM (FGFR2 (h); [1]) was 82% and the inhibition at 20 µM (PDGFRβ (h); [2]) was 13%. The inhibition at 20 µM (EGFR (h); [2]) was 19%, the inhibition at 20 µM (cSRC (h); [2]) was 86% and the IC50 (RET) was 1 to 10 µM. The inhibition at 20 µM (PKBγ (h); [2]) was 5% and the inhibition at 20 µM (c-RAF (h); [2]) was 17%.
With `CCOC(=O)c1c[nH]c2c(=O)[nH]c3ccc(S(=O)(=O)Nc4ccc(F)cc4)cc3c12` [Compound 12, 8-(4-Fluorophenylsulfamoyl)-4-oxo-4,5-dihydro-3H-pyrrolo[2,3-c]quinoline-1-ethyl carboxylate] the inhibition at 10 µM (CDK2/cyclinE (h); [3]) was 12%, the inhibition at 10 µM (cKit (h); [4]) was 45% and the inhibition at 10 µM (IGF-1R (h); [3]) was 0%. For the same compound, the inhibition at 10 µM (JAK3 (h); [4]) was 50%, the inhibition at 10 µM (FGFR2 (h); [3]) was 91% and the inhibition at 10 µM (PDGFRβ (h); [4]) was 0%. The inhibition at 10 µM (EGFR (h); [4]) was 13%, the inhibition at 10 µM (cSRC (h); [4]) was 91% and the inhibition at 10 µM (GSK3B (h); [4]) was 22%. The IC50 (RET) was < 0.1 µM, the inhibition at 10 µM (PKBγ (h); [4]) was 20% and the inhibition at 10 µM (c-RAF (h); [4]) was 79%.
`CCOC(=O)c1c[nH]c2c(=O)[nH]c3ccc(-c4cccc(S(C)(=O)=O)c4)cc3c12` [Compound 238, 8-(3-Methanesulfonyl-phenyl)-4-oxo-4,5-dihydro-3H-pyrrolo[2,3-c]quinoline-1-ethyl carboxylate] was tested, and the inhibition at 1 µM (cKit (h); [5]) was 4%, the inhibition at 1 µM (JAK3 (h); [6]) was 5% and the inhibition at 1 µM (PDGFRβ (h); compound 1 μM, ATP (120), read-out: % inhibition at 1 μMol) was 0%. It also gave an inhibition at 1 µM (EGFR (h); [6]) of 3%, an inhibition at 1 µM (cSRC (h); [5]) of 7% and an inhibition at 1 µM (GSK3B (h); compound 1 μM, ATP (15), read-out: % inhibition at 1 μMol) of 0%. For the same compound, the IC50 (RET) was 0.1 to 1 µM, the inhibition at 1 µM (PKBγ (h); [5]) was 2% and the inhibition at 1 µM (c-RAF (h); compound 1 μM, ATP (45), read-out: % inhibition at 1 μMol) was 3%.

— US8426437B2, “Pyrroloquinoline derivatives and their use as protein kinases inhibitors” (Pierre Fabre Medicament, priority 2005, dated 2013)
